One assay concerns the target Endothelial lipase (EL) (Homo sapiens (Human), UniProt Q9Y5X9). In words: EL assay: endothelial lipase activity with fluorescent substrate A10070 in DMPG vesicles. In kind it is biochemical. In a few lines:
(§1)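 EL from conditioned medium of HT-1080 cells engineered to overexpress endogenous EL; HL partially purified from conditioned medium of HL-overexpressing COS cells. Enzyme preincubated with compound 30 min at 37° C in 50 mM HEPES pH 8.0, 50 mM NaCl, 1 mM CaCl2; DMPG vesicles carrying FRET substrate (0.11 mole fraction) then added.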

Another assay deals with hepatic lipase (HL) (Homo sapiens (Human), UniProt P11150). In words: HL assay: hepatic lipase activity with fluorescent substrate A10070 in DMPG vesicles. In kind it is biochemical. In a few lines:
as §1

Chain of hepatic lipase (HL) (P11150 23-499, species assumed): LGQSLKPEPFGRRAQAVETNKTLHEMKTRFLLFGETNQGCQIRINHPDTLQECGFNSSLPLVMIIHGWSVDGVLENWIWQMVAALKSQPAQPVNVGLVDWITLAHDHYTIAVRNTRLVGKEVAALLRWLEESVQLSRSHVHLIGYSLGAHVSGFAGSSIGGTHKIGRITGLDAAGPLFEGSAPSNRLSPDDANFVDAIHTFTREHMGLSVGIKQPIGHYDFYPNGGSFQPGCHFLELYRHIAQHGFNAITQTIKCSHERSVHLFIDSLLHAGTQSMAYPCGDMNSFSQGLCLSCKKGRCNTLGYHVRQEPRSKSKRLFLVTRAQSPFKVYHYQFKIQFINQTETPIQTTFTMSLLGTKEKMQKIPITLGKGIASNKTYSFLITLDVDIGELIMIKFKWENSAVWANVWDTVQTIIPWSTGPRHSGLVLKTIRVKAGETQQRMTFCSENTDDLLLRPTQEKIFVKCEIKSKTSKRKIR
Chain of Endothelial lipase (EL) (Q9Y5X9 21-500): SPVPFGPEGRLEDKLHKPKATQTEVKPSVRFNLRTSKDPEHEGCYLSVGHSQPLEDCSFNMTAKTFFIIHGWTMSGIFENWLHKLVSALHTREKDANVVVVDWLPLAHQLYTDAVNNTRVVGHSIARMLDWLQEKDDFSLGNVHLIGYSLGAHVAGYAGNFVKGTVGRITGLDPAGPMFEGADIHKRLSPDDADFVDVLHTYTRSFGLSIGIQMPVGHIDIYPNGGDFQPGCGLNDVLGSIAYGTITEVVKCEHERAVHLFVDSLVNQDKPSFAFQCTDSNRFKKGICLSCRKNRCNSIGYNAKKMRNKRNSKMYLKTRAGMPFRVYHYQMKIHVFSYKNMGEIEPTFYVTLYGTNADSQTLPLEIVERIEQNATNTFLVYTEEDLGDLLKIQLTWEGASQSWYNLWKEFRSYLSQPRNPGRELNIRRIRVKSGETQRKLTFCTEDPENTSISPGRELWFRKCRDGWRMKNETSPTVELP

As for `CS(=O)(=O)C(C(=O)NCc1csc(N)n1)c1nc2ccc(-c3ccc(C(=O)N4CCOCC4)cc3)cc2s1` (stereo not shown) [Example B137, N-((2-amino-1,3-thiazol-4-yl)methyl)-2-(methylsulfonyl)-2-(6-(4-(4-morpholinylcarbonyl)phen-yl)-1,3-benzothiazol-2-yl)acetamide], the IC50 is less than 10 nM on Endothelial lipase (EL) and 17500 nM at hepatic lipase (HL).
Take `NS(=O)(=O)CCNC(=O)C(c1nc2ccc(-c3cnn(CCN4CCOCC4)c3)cc2s1)S(=O)(=O)CC1CC1` (stereo not shown) [Example B77, 2-[(cyclopropylmethyl)sul-fonyl]-2-(6-{1-[2-(4-morpholinyl)ethyl]-1H-pyrazol-4-yl}-1,3-benzothiazol-2-yl)-N-(2-sulfamoylethyl)acetamide]: the IC50 is less than 10 nM against Endothelial lipase (EL) and 2260 nM against hepatic lipase (HL).
As to `NS(=O)(=O)CCNC(=O)C(c1nc2ccc(-c3cccc(C(=O)N4CCC(O)CC4)c3)cc2s1)S(=O)(=O)CCC(F)(F)F` (stereo not shown) [Example B332, 2-{6-[3-(4-hydroxy-piperidine-1-carbonyl)phen-yl]-1,3-benzothiazol-2-yl}-N-(2-sulfamoyl-ethyl)-2-(3,3,3-trifluoro-propanesulfonyl)acetamide], the results for the IC50 against Endothelial lipase (EL) and on hepatic lipase (HL) were 1.5 nM and 136 nM, respectively.
As to `CC(C)(C)OC(=O)N1CC=C(c2ccc3sc(C(C(=O)NCCS(N)(=O)=O)S(C)(=O)=O)nc3c2)CC1` (stereo not shown) [Example B382, tert-butyl 4-(2-{methanesulfonyl[(2-sulfa-moylethyl)carbamoyl]meth-yl}-1,3-benzothiazol-5-yl)-1,2,3,6-tetrahydropyridine-1-carboxylate], the IC50 against Endothelial lipase (EL) is 3.1 nM; against hepatic lipase (HL), 36.5 nM.
Taken in the same sequence, the figures for `NS(=O)(=O)CCNC(=O)C(c1nc2ccc(-c3cccc(C(=O)N4CCC(F)(F)CC4)c3)cc2s1)S(=O)(=O)CCC(F)(F)F` (stereo not shown) [Example B343, 2-{6-[3-(4,4-difluoro-piperidine-1-carbon-yl)phenyl]-1,3-benzothiazol-2-yl}-N-(2-sulfamoyl-ethyl)-2-(3,3,3-trifluoro-propanesulfonyl)acetamide] were 13.5 nM and 38.1 nM.
With `Cc1cc2nc(C(C(=O)NCCS(N)(=O)=O)S(C)(=O)=O)sc2cc1-c1ccc(F)nc1` (stereo not shown) [Example B129], the IC50 on Endothelial lipase (EL) and against hepatic lipase (HL) was less than 10 nM each time.
Turning to `CS(=O)(=O)C(C(=O)NCCS(N)(=O)=O)c1nc2ccc(-c3ccc(C(=O)N4CCOCC4)c(Cl)c3)cc2s1` (stereo not shown) [Example B32, 2-(6-(3-chloro-4-(4-morpholinylcarbonyl)phenyl)-1,3-benzothiazol-2-yl)-2-(methylsulfonyl)-N-(2-sulfamoylethyl)acetamide], the IC50 is less than 10 nM at Endothelial lipase (EL) and 923 nM at hepatic lipase (HL).
On the same counts, the results for `NS(=O)(=O)CCNC(=O)C(c1nc2ccc(-c3ccc(C(=O)NCC(F)(F)F)cc3)cc2s1)S(=O)(=O)Cc1ccc(F)cc1` (stereo not shown) [Example B65, 4-(2-(1-((4-fluorobenzyl)sul-fonyl)-2-oxo-2-((2-sulfamoylethyl)amino)ethyl)-1,3-benzothiazol-6-yl)-N-(2,2,2-trifluoroethyl)ben-zamide] are less than 10 nM and 61 nM.
Turning to `CC(C)CS(=O)(=O)C(C(=O)NCCS(N)(=O)=O)c1nc2ccc(-c3ccccc3)cc2s1` (stereo not shown) [Example B106, 2-(isobutylsulfonyl)-2-(6-phenyl-1,3-benzothiazol-2-yl)-N-(2-sulfamoylethyl)a-cetamide], the concentration for half-maximal inhibition (IC50) against Endothelial lipase (EL) and at hepatic lipase (HL) was less than 10 nM in each case.
For `CS(=O)(=O)C(C(=O)NCCS(N)(=O)=O)c1nc2ccc(-c3ccc(C(=O)N4CC(F)C4)cc3)cc2s1` (stereo not shown) [Example B330, 2-{6-[4-(3-fluoroazetidine-1-carbonyl)phenyl]-1,3-benzothiazol-2-yl}-2-methanesulfonyl-N-(2-sulfamoylethyl)acetamide], the values for the IC50 against Endothelial lipase (EL) and on hepatic lipase (HL) were 0.7 nM and 46.7 nM, respectively.
For the compound “2-[6-(2-fluorophenyl)-1,3- benzothiazol-2-yl]-N-(2- sulfamoylethyl)-2-(3,3,3- trifluoropropanesulfonyl)a- cetamide [Example B307]”, the IC50 was 3 nM on Endothelial lipase (EL) and 1.5 nM on hepatic lipase (HL).
Regarding `CS(=O)(=O)C(C(=O)NCCS(N)(=O)=O)c1nc2ccc(-c3cccc(CCO)c3)cc2s1` (stereo not shown) [Example B58, 2-(6-(3-(2-hydroxyethyl)phenyl)-1,3-benzothiazol-2-yl)-2-(methylsulfonyl)-N-(2-sulfamoylethyl)acetamide], the values for the IC50 at Endothelial lipase (EL) and on hepatic lipase (HL) were less than 10 nM and 36 nM, respectively.
On to `NS(=O)(=O)CCNC(=O)C(c1nc2ccc(-c3ccc(C(=O)N4CC(F)(F)C4)cc3)cc2s1)S(=O)(=O)Cc1cccc(C(F)(F)F)c1` (stereo not shown) [Example B359, 2-{6-[4-(3,3-difluoro-azetidine-1-carbonyl)phen-yl]-1,3-benzothiazol-2-yl}-N-(2-sulfamoyl-ethyl)-2-{[3-(trifluoromethyl)phen-yl]methanesulfonyl}a-cetamide], for which the IC50 against Endothelial lipase (EL) is 4.7 nM; against hepatic lipase (HL), 47 nM.
Taken in the same sequence, the figures for `CS(=O)(=O)C(C(=O)NCCS(N)(=O)=O)c1nc2ccc(-c3cnn(-c4ccc(F)cc4)c3)cc2s1` (stereo not shown) [Example B74, 2-(6-(1-(4-fluorophenyl)-1H-pyrazol-4-yl)-1,3-benzothiazol-2-yl)-2-(methylsulfonyl)-N-(2-sulfamoylethyl)acetamide] were less than 10 nM and less than 10 nM.
Turning to `CS(=O)(=O)C(C(=O)NCCS(N)(=O)=O)c1nc2cc(-c3ccncc3F)ccc2s1` (stereo not shown) [Example B381, 2-[5-(3-fluoropyridin-4-yl)-1,3-benzothiazol-2-yl]-2-methanesulfonyl-N-(2-sulfamoylethyl)acetamide], the IC50 against Endothelial lipase (EL) worked out at 1.1 nM; against hepatic lipase (HL), 40.2 nM.
Taken in the same sequence, the figures for `NS(=O)(=O)CCNC(=O)C(c1nc2ccc(-c3ccc(C(=O)N4CC(F)C4)cc3)cc2s1)S(=O)(=O)Cc1ccc(OC(F)(F)F)cc1` (stereo not shown) [Example B355, 2-{6-[4-(3-fluoroazetidine-1-carbonyl)phenyl]-1,3-benzothiazol-2-yl}-N-(2-sulfamoylethyl)-2-{[4-(trifluoromethoxy)phen-yl]methanesulfonyl}a-cetamide] were 6.6 nM and 235 nM.
On the same counts, the results for `COCc1ccc(-c2ccc3nc(C(C(=O)NCCS(N)(=O)=O)S(C)(=O)=O)sc3c2)cc1` (stereo not shown) [Example B63, 2-(6-(4-(methoxymethyl)phen-yl)-1,3-benzothiazol-2-yl)-2-(methylsulfonyl)-N-(2-sulfamoylethyl)a-cetamide] are 0.5 nM and 2.6 nM.
On the same counts, the results for `CS(=O)(=O)C(C(=O)NCCS(N)(=O)=O)c1nc2ccc(-c3ccc(OC(F)(F)F)cc3)cc2s1` (stereo not shown) [Example B39, 2-(methylsulfonyl)-N-(2-sulfamoylethyl)-2-(6-(4-(trifluoromethoxy)phenyl)-1,3-benzothiazol-2-yl)acetamide] are less than 10 nM and less than 10 nM.
For `NS(=O)(=O)CCNC(=O)C(c1nc2ccc(-c3ccc(F)nc3)cc2s1)S(=O)(=O)CCN1CCOCC1` (stereo not shown) [Example B313, 2-[6-(6-fluoropyridin-3-yl)-1,3-benzothiazol-2-yl]-2-[2-(morpholin-4-yl)ethanesulfonyl]-N-(2-sulfamoylethyl)acetamide], the 50% inhibitory concentration (IC50) against Endothelial lipase (EL) worked out at 10.8 nM; against hepatic lipase (HL), 106 nM.
On the same counts, the results for `NS(=O)(=O)CCNC(=O)C(c1nc2ccc(-c3cncnc3)cc2s1)S(=O)(=O)Cc1ccccc1` (stereo not shown) [Example B140, 2-(benzylsulfonyl)-2-(6-(5-pyrimidinyl)-1,3-benzothiazol-2-yl)-N-(2-sulfamoylethyl)acetamide] are 13.7 nM and 8790 nM.
As for `CS(=O)(=O)C(C(=O)NCCS(N)(=O)=O)c1nc2ccc(-c3ccc4c(c3)NC(=O)C4)cc2s1` (stereo not shown) [Example B183, 2-(methylsulfonyl)-2-(6-(2-oxo-2,3-dihydro-1H-indol-6-yl)-1,3-benzothiazol-2-yl)-N-(2-sulfamoylethyl)a-cetamide], the IC50 against Endothelial lipase (EL) is less than 10 nM; against hepatic lipase (HL) it was 139 nM.
As to `CN(C)C(=O)c1ccc(-c2ccc3nc(C(C(=O)NCCS(N)(=O)=O)S(=O)(=O)CCC(F)(F)F)sc3c2)cc1F` (stereo not shown) [Example B230, 2-fluoro-N,N-dimethyl-4-(2-{[(2-sulfamoylethyl)car-bamoyl](3,3,3-trifluoro-propanesulfonyl)meth-yl}-1,3-benzothiazol-6-yl)benzamide], the half-maximal inhibitory concentration (IC50) against Endothelial lipase (EL) turned out to be 4.6 nM; at hepatic lipase (HL), 37.4 nM.
As to `CC(C)(O)Cn1cc(-c2ccc3sc(C(C(=O)NCCS(N)(=O)=O)S(C)(=O)=O)nc3c2)ccc1=O` (stereo not shown) [Example B390, 2-{5-[1-(2-hydroxy-2-methylpropyl)-6-oxo-1,6-dihydropyridin-3-yl]-1,3-benzothiazol-2-yl}-2-methanesulfonyl-N-(2-sulfamoylethyl)acetamide], the IC50 against Endothelial lipase (EL) worked out at 3.5 nM; against hepatic lipase (HL), 10000 nM.
As for `Cc1cc2nc(C(C(=O)NCCS(N)(=O)=O)S(=O)(=O)Cc3ccccc3)sc2cc1-c1ccc(C(=O)OC(C)(C)C)cc1` (stereo not shown) [Example B273, tert-butyl 4-(5-methyl-2-{phenylmethanesulfonyl[(2-sulfamoylethyl)car-bamoyl]methyl}-1,3-benzothiazol-6-yl)benzoate], the IC50 against Endothelial lipase (EL) amounted to 1.4 nM; against hepatic lipase (HL), 3 nM.
Taken in the same sequence, the figures for `COCc1ccc(-c2ccc3nc(C(C(=O)NCCS(N)(=O)=O)S(=O)(=O)CCC(F)(F)F)sc3c2)cc1` (stereo not shown) [Example B239, 2-{6-[4-(methoxymeth-yl)phenyl]-1,3-benzothiazol-2-yl}-N-(2-sulfamoyl-ethyl)-2-(3,3,3-trifluoro-propanesulfonyl)acetamide] were 9.4 nM and 7.3 nM.
For `COc1ccc(-c2ccc3sc(C(C(=O)NCCS(N)(=O)=O)S(C)(=O)=O)nc3c2)cn1` (stereo not shown) [Example B87, 2-(5-(6-methoxy-3-pyridinyl)-1,3-benzothiazol-2-yl)-2-(methylsulfonyl)-N-(2-sulfamoylethyl)acetamide], the IC50 against Endothelial lipase (EL) was 0.5 nM; on hepatic lipase (HL), 2.6 nM.

A word on the IC50: it is the concentration that inhibits the measured activity by half. Read a low IC50 as greater potency.

Source of the values: patent publication US8987314B2, “Amide, urea or sulfone amide linked benzothiazole inhibitors of endothelial lipase” (Bristol-Myers Squibb Company, priority 2012, dated 2015).
